The structures appear in SMILES notation. “And” between values parts separate entries of the source, which are not always exact repeats. Equal entries are not always repeated. Inconclusive results and toxic doses are left out.

The subject of the assay is CD2F1 mice, L1210 leukemia ip, survival T/C. Put plainly: NCI In Vivo Anticancer Drug Screen. Data for tumor model L1210 Leukemia (intraperitoneal) in CD2F1 (CDF1) mice. The conditions noted are these: higher = longer survival. Put shortly:
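Activity against a transplanted murine tumor was judged by comparing the compound group with a vehicle group. The outcome in the treated animals was divided by that in the controls.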

[1] abbreviates: endpoint: mean survival time, dose: 6.25 mg/kg/injection, schedule: Q01DX009 (ip), vehicle: saline.
Setting [2] is: endpoint: mean survival time, dose: 12.5 mg/kg/injection, schedule: Q01DX009 (ip), vehicle: saline.
Where [3] appears, read: endpoint: mean survival time, dose: 25.0 mg/kg/injection, schedule: Q01DX009 (ip), vehicle: saline.
The mark [4] stands for this setting: endpoint: mean survival time, dose: 100.0 mg/kg/injection, schedule: Q04DX003 (ip), vehicle: saline with Tween-80.
Setting [5] is: endpoint: mean survival time, dose: 200.0 mg/kg/injection, schedule: Q04DX003 (ip), vehicle: saline with Tween-80.
The mark [6] stands for this setting: endpoint: mean survival time, dose: 400.0 mg/kg/injection, schedule: Q04DX003 (ip), vehicle: saline with Tween-80.
Setting [7] is: endpoint: mean survival time, dose: 100.0 mg/kg/injection, schedule: Q04DX002 (ip), vehicle: saline with Tween-80.
Setting [8] is: endpoint: mean survival time, dose: 200.0 mg/kg/injection, schedule: Q04DX002 (ip), vehicle: saline with Tween-80.
Where [9] appears, read: endpoint: mean survival time, dose: 50.0 mg/kg/injection, schedule: Q01DX009 (ip), vehicle: saline with Tween-80.
The mark [10] stands for this setting: endpoint: mean survival time, dose: 100.0 mg/kg/injection, schedule: Q01DX009 (ip), vehicle: saline with Tween-80.
Where [11] appears, read: endpoint: mean survival time, dose: 200.0 mg/kg/injection, schedule: Q01DX009 (ip), vehicle: saline with Tween-80.
The mark [12] stands for this setting: endpoint: mean survival time, dose: 400.0 mg/kg/injection, schedule: Q01DX009 (ip), vehicle: saline with Tween-80.
The mark [13] stands for this setting: endpoint: mean survival time, dose: 100.0 mg/kg/injection, schedule: Q04DX003 (ip), vehicle: Klucel (hydroxypropylcellulose) (HPC).

`CN=NC1(OC(C)=O)CCCC1`: the T/C runs as follows: (endpoint: mean survival time, dose: 3.12 mg/kg/injection, schedule: Q01DX009 (ip), vehicle: saline) 109 % of control; under setting [1], 111 % of control; under setting [2], 118 % of control and 121 % of control; under setting [3], 105 % of control.
Take `C[N+]1=C2CCCC2=C(N)CC1`: the T/C under setting [1] was 105 % of control, the T/C under setting [2] is 100 % of control and the T/C under setting [3] is 98 % of control.
As to `Clc1ccccc1/C=C1\c2ccccc2-c2nc3ccccc3nc21`, the T/C was 109 % of control under setting [4], 103 % of control under setting [5] and 97 % of control under setting [6].
Consider `Cc1cccc2c(=O)c3ccccc3oc12`, for which the T/C reads like this: (endpoint: mean survival time, dose: 100.0 mg/kg/injection, schedule: Q04DX003 (ip), vehicle: saline) 102 % of control; (endpoint: mean survival time, dose: 200.0 mg/kg/injection, schedule: Q04DX003 (ip), vehicle: saline) 102 % of control; (endpoint: mean survival time, dose: 400.0 mg/kg/injection, schedule: Q04DX003 (ip), vehicle: saline) 104 % of control.
In the case of `Cc1ccc(C2=CSc3ccccc3N2)cc1`, the T/C (endpoint: mean survival time, dose: 100.0 mg/kg/injection, schedule: Q04DX002 (ip), vehicle: other) was 104 % of control and the T/C (endpoint: mean survival time, dose: 200.0 mg/kg/injection, schedule: Q04DX002 (ip), vehicle: other) is 104 % of control.
Take `CC(O)C(=O)Oc1ccccc1` (stereo unspecified): the T/C runs as follows: (endpoint: mean survival time, dose: 50.0 mg/kg/injection, schedule: Q01DX009 (ip), vehicle: other) 92 % of control; (endpoint: mean survival time, dose: 100.0 mg/kg/injection, schedule: Q01DX009 (ip), vehicle: other) 100 % of control; (endpoint: mean survival time, dose: 200.0 mg/kg/injection, schedule: Q01DX009 (ip), vehicle: other) 102 % of control.
Turning to `CC(=O)C1CCC2c3cc4c(c(C)c3CCC12C)CCC(OC(=O)C1CCCCC1)C4` (stereo unspecified), the T/C was 101 % of control under setting [4], 101 % of control under setting [5] and 104 % of control under setting [6].
Take `NNC(=O)c1ccccc1Cl`: the T/C was 97 % of control (endpoint: mean survival time, dose: 9.5 mg/kg/injection, schedule: Q01DX001 (ip), vehicle: other); 95 % of control (endpoint: mean survival time, dose: 19.0 mg/kg/injection, schedule: Q01DX001 (ip), vehicle: other); 97 % of control (endpoint: mean survival time, dose: 38.0 mg/kg/injection, schedule: Q01DX001 (ip), vehicle: other).
`CC(=O)CC(C)=Nc1cccc(Cl)c1`: the T/C is, setting by setting: under setting [7], 98 % of control; under setting [8], 95 % of control; (endpoint: mean survival time, dose: 400.0 mg/kg/injection, schedule: Q04DX002 (ip), vehicle: saline with Tween-80) 95 % of control.
For `CSc1nc(N)n2nccc2n1`, the T/C (endpoint: median survival time, dose: 50.0 mg/kg/injection, schedule: Q01DX005 (ip), vehicle: saline) is 102 % of control; the T/C (endpoint: median survival time, dose: 100.0 mg/kg/injection, schedule: Q01DX005 (ip), vehicle: saline) was 95 % of control; the T/C (endpoint: median survival time, dose: 200.0 mg/kg/injection, schedule: Q01DX005 (ip), vehicle: saline) was 95 % of control.
As for `CCOC(=O)Nc1cc(N)c2n[nH]nc2n1`, the T/C was 100 % of control (endpoint: mean survival time, dose: 100.0 mg/kg/injection, schedule: Q01DX001 (ip), vehicle: carboxymethylcellulose (CMC)); 98 % of control (endpoint: mean survival time, dose: 200.0 mg/kg/injection, schedule: Q01DX001 (ip), vehicle: carboxymethylcellulose (CMC)); 102 % of control (endpoint: mean survival time, dose: 400.0 mg/kg/injection, schedule: Q01DX001 (ip), vehicle: carboxymethylcellulose (CMC)).
Turning to `CC(=O)NC(C(=O)O)C(C)C.CC(=O)NC(C(=O)O)C(C)C.[NH-]C1CCCCC1[NH-].[Pt+2]` (stereo unspecified), the T/C is, setting by setting: (endpoint: median survival time, dose: 3.12 mg/kg/injection, schedule: Q04DX003 (ip), vehicle: saline) 102 % of control and 107 % of control and 108 % of control; (endpoint: median survival time, dose: 6.25 mg/kg/injection, schedule: Q04DX003 (ip), vehicle: saline) 107 % of control [middle of 4 runs]; (endpoint: median survival time, dose: 12.5 mg/kg/injection, schedule: Q04DX003 (ip), vehicle: saline) 112 % of control [middle of 4 runs]; (endpoint: median survival time, dose: 25.0 mg/kg/injection, schedule: Q04DX003 (ip), vehicle: saline) 112 % of control [middle of 4 runs]; (endpoint: median survival time, dose: 50.0 mg/kg/injection, schedule: Q04DX003 (ip), vehicle: saline) 122 % of control and 119 % of control; (endpoint: median survival time, dose: 200.0 mg/kg/injection, schedule: Q04DX003 (ip), vehicle: saline) 187 % of control [middle of 4 runs].
For `O=c1oc(-c2ccccc2)nc2cc(Cl)ccc12`, the T/C reads like this: (endpoint: mean survival time, dose: 25.0 mg/kg/injection, schedule: Q01DX009 (ip), vehicle: saline with Tween-80) 105 % of control; under setting [9], 100 % of control; under setting [10], 105 % of control.
Regarding `Cc1cc(C)c(NC(=O)c2cccc(Cl)c2)c(C)c1`, the T/C was 104 % of control under setting [10]; 94 % of control under setting [4]; 98 % of control under setting [11]; 96 % of control under setting [5]; 105 % of control under setting [12]; 88 % of control under setting [6].
Regarding `COc1ccccc1C(=O)C1N=C(c2ccccc2)OC1=O` (stereo unspecified), the T/C by setting is: (endpoint: mean survival time, dose: 100.0 mg/kg/injection, schedule: Q01DX001 (ip), vehicle: saline) 98 % of control; (endpoint: mean survival time, dose: 200.0 mg/kg/injection, schedule: Q01DX001 (ip), vehicle: saline) 97 % of control; (endpoint: mean survival time, dose: 400.0 mg/kg/injection, schedule: Q01DX001 (ip), vehicle: saline) 97 % of control.
Regarding `Nc1nc2ncccc2[nH]1`, the T/C is, setting by setting: (endpoint: mean survival time, dose: 12.5 mg/kg/injection, schedule: Q01DX005 (ip), vehicle: other) 108 % of control; (endpoint: mean survival time, dose: 25.0 mg/kg/injection, schedule: Q01DX005 (ip), vehicle: other) 107 % of control; (endpoint: mean survival time, dose: 50.0 mg/kg/injection, schedule: Q01DX005 (ip), vehicle: other) 104 % of control; (endpoint: mean survival time, dose: 100.0 mg/kg/injection, schedule: Q01DX005 (ip), vehicle: other) 101 % of control; (endpoint: mean survival time, dose: 200.0 mg/kg/injection, schedule: Q01DX005 (ip), vehicle: other) 103 % of control.
Turning to `Clc1ccc(N=Cc2ccccc2Cl)cc1`, the T/C is, setting by setting: under setting [4], 107 % of control; under setting [5], 113 % of control; under setting [6], 100 % of control.
Turning to `O=C(Oc1ccn(C2OC(CO)C(O)C2O)c(=O)c1)C12CC3CC(CC(C3)C1)C2` (stereo unspecified), the T/C is 153 % of control (endpoint: median survival time, dose: 20.0 mg/kg/injection, schedule: Q01DX009 (ip), vehicle: saline + Tween-80 + alcohol); 170 % of control (endpoint: median survival time, dose: 30.0 mg/kg/injection, schedule: Q01DX009 (ip), vehicle: saline + Tween-80 + alcohol); 158 % of control (endpoint: median survival time, dose: 45.0 mg/kg/injection, schedule: Q01DX009 (ip), vehicle: saline + Tween-80 + alcohol).
`CCCC(N)C(=O)O` (stereo unspecified): the T/C was 106 % of control under setting [9], 98 % of control under setting [10] and 104 % of control under setting [11].
In the case of `O=C(Nc1ccccc1F)Nc1cccc2ccccc12`, the T/C reads like this: under setting [4], 98 % of control; under setting [5], 101 % of control; under setting [6], 96 % of control.
Turning to `OCCN=Cc1cccs1`, the T/C by setting is: under setting [10], 101 % of control; under setting [11], 95 % of control; under setting [12], 110 % of control.
Consider `COc1cc(OC)c(NC(=O)OCCOc2ccc([N+](=O)[O-])cc2)cc1Cl`, for which the T/C is 90 % of control under setting [9], 86 % of control under setting [10] and 97 % of control under setting [11].
Consider `CCOC(=O)c1cnc2c(cnn2CC)c1OCc1ccccc1`, for which the T/C under setting [13] was 101 % of control; the T/C (endpoint: mean survival time, dose: 200.0 mg/kg/injection, schedule: Q04DX003 (ip), vehicle: Klucel (hydroxypropylcellulose) (HPC)) was 104 % of control; the T/C (endpoint: mean survival time, dose: 400.0 mg/kg/injection, schedule: Q04DX003 (ip), vehicle: Klucel (hydroxypropylcellulose) (HPC)) was 108 % of control.
For the compound `CCOC(=O)C(=NCc1ccc2c(c1)OCO2)NO`, the T/C by setting is: under setting [4], 96 % of control; under setting [5], 100 % of control; under setting [6], 101 % of control.
Consider `CC(=O)OC1CC2CC1C1C=CCC21` (stereo unspecified), for which the T/C was 97 % of control (endpoint: mean survival time, dose: 100.0 mg/kg/injection, schedule: Q01DX001 (ip), vehicle: saline with Tween-80); 95 % of control (endpoint: mean survival time, dose: 200.0 mg/kg/injection, schedule: Q01DX001 (ip), vehicle: saline with Tween-80); 100 % of control (endpoint: mean survival time, dose: 400.0 mg/kg/injection, schedule: Q01DX001 (ip), vehicle: saline with Tween-80).
For `CC(C)C(C(N)=O)C(N)=O`, the T/C was 100 % of control under setting [7] and 100 % of control under setting [8].
As to `CC[n+]1ccc(Cc2ccc([N+](=O)[O-])cc2)cc1`, under setting [13], the T/C is 105 % of control.

Source of the values: PubChem BioAssay AID256 (DTP/NCI, 2004).
